# Results published in patent US4448785A, “N-Unsaturated fatty acid amides of tryptophan ester homologues and anti-cholesteric use thereof” (Sandoz, Inc., priority 1982, dated 1984).
# Tested on: Fu5AH rat hepatoma cells
# Test: Inhibition of cholesterol ester accumulation in Fu5AH cells
# Format: cell-based
# Design: Visual (in comparison to results with compound of Example 2a) / % Inhibition of cholesterol ester accumulation: unit of the concentration uncertain
# Settings: for inhibition at 10 µg/mL: Rattus norvegicus
# Excerpt: For testing a 75 cm^2 flask with a near confluent cell growth is selected. The cells are removed from the flask surface by mild enzymatic treatment with pronase. After centrifugation and decanting the enzyme solution, the cell pellet is resuspended in an appropriate volume of media for seeding the desired number of 60 mm tissue culture dishes. Five (5) ml of the diluted cell suspension are pipetted into each dish. After seeding, the dishes are labelled with the cell type, date and flask number of origin and incubated at 37° C. in approximately 5% CO2 atmosphere in a high humidity incubator. When the cultures are confluent, the actual drug testing is begun. Test compounds are routinely solubilized in 100% ethanol. An equivalent amount of ethanol is added to control groups as well. The tissue culture dishes are randomly divided into groups. To one group, hyperlipemic rabbit serum (HRS) is added at 5% by volume (control). […] The dishes are returned to the incubator for an additional 24 hours. All operations through to the final incubation are performed using sterile technique in a laminar flow hood. After the incubation period, the dishes are microscopically observed with the Zeiss Axiomat with phase contrast optics and the conditions of the cultures are recorded; especially in regard to the size, number and configuration of cytoplasmic inclusions and to cellular morphology. The media is removed from the cultures and 0.9% sodium chloride solution is added. The cells are removed from the flasks with the aid of a rubber policeman and transferred to a conical graduated centrifuge tube. The cells are washed three times by suspending in an isotonic salt solution, centrifuging at 800× g for 10 minutes and aspirating the supernatant fluid.
# An appropriate volume of isopropyl alcohol (about 1 ml/mg protein) is then added to the cell pellet and the sample sonicated with a micro probe (140×3 mm) for 10 seconds with a "LO" setting of 50 on a Bronwell Biosonik IV. After centrifugation for 15 minutes at 800× g, the clear supernatant is decanted and an aliquot taken for cholesterol analysis.
# An aliquot of 0.4 ml of free reagent (Reagent A, Table 1 below) is added to a 10×75 mm disposable glass test tube to which 20 μl of the isopropyl alcoholic solution is added and mixed. After standing at room temperature for approximately 5 minutes, 0.8 ml of 0.5 N sodium hydroxide (Reagent C, Table 1) is added and mixed. The fluorescence is measured with an Aminco-Bowman spectrophotofluorometer with an excitation wavelength of 325 nm and emission wavelength of 415 nm. A 1 cm light path cuvette is used with a xenon lamp, an IP28 photomultiplier tube and 2 mm slits.
# Total cholesterol: The same procedure described above for free cholesterol is followed for total cholesterol except that the total reagent (Reagent B, Table 1) is used instead of the free reagent and the samples are incubated for 20 minutes at 37° C. before the addition of the 0.5 N sodium hydroxide solution (Reagent C, Table 1).
# The amount of cholesterol ester is found by subtracting the amount of free cholesterol from the total cholesterol content of the cells determined by the assay.
# [1] = Dose 10 (unit uncertain) as printed
# [2] = Dose 10 as printed, Control = 0.17
Compound,Visual (in comparison to results with compound of Example 2a) [1],inhibition at 10 µg/mL (Table 6),F/T [2],also measured
"CCCCCCCC/C=C\CCCCCCCC(=O)NC(Cc1c[nH]c2ccc(F)cc12)C(=O)OCC (centres unmarked) [Example 3e, 2-(1-oxo-9-octadecenylamino)-3-(1H-5 fluoroindolyl)-propanoic acid, ethyl ester]",About same,39%,,
CCCCC/C=C\C/C=C\CCCCCCCC(=O)NC(Cc1c[nH]c2ccccc12)C(=O)OCCCCCCCC (centres unmarked) [Example 4c],,,,"Visual (in comparison to results with compound of Example 2a) (Dose 5 (unit uncertain) as printed): Weaker; F/T (Dose 5 as printed, Control = 0.19): 0.22"
"CCCCCCCC/C=C\CCCCCCCC(=O)NC(Cc1cn(C)c2ccccc12)C(=O)OCC (centres unmarked) [Example 3a, 2-(1-oxo-9-octadecenylamino)-3-(1-methylindolyl)-propanoic acid, ethyl ester]",,,0.52,
"CCCCCCCC/C=C\CCCCCCCC(=O)NC(Cc1c[nH]c2ccc(OC)cc12)C(=O)OCC (centres unmarked) [Example 3b, 2-(1-oxo-9-octadecenylamino)-3-(1H-5-methoxyindolyl)-propanoic acid, ethyl ester]",About same,,0.45,
"CCCCC/C=C\C/C=C\CCCCCCCC(=O)NC(Cc1c[nH]c2ccccc12)C(=O)OCC (stereo not drawn) [Example 1, α-[(1-Oxo-9,12-oxtadecadienylamino)]1H-Indole-3-Propanoic acid, Ethyl Ester(cis, cis isomer)]",About same,69%,,"% Inhibition of cholesterol ester accumulation (Dose 10 (unit uncertain) as printed, Table 6): 59%"
CCCCC/C=C\C/C=C\CCCCCCCC(=O)NC(Cc1c[nH]c2ccccc12)C(=O)OCc1ccccc1 (centres unmarked) [Example 4d],About same,,,
